Consider 13 compounds from patent US20260022142A1, “MACROCYCLIC IMMUNOMODULATORS” (Bristol-Myers Squibb Company, priority 2022, published 2026).

A word on the IC50: it is the point on the concentration scale where inhibition reaches its midpoint.

Molecules are shown by their SMILES. Bridge positions count the residues as written; N and C are the ends. Square brackets hold non-standard residues; d marks the D form. Peptide text beside a SMILES is read from it. * marks the point of attachment. Phe(4-COOH) = N[C@@H](Cc1ccc(C(=O)O)cc1)C(=O)O; Bip = N[C@@H](Cc1ccc(-c2ccccc2)cc1)C(=O)O; Phe(3-Me) = Cc1cccc(C[C@H](N)C(=O)O)c1; His(τ-Me) = Cn1cnc(C[C@H](N)C(=O)O)c1; Val(3-OH) = CC(C)(O)[C@H](N)C(=O)O; Val(3-F) = CC(C)(F)[C@H](N)C(=O)O; Ala(cPr) = N[C@@H](CC1CC1)C(=O)O; 4Pal = N[C@@H](Cc1ccncc1)C(=O)O; Cha = N[C@@H](CC1CCCCC1)C(=O)O; Cit = NC(=O)NCCC[C@H](N)C(=O)O; Cba = N[C@@H](CC1CCC1)C(=O)O; Carboxymethyl = O=C(O)C*; Orn = NCCC[C@H](N)C(=O)O; Aun = NCCCCCCCCCCC(=O)O; Dab = NCC[C@H](N)C(=O)O; Dap = NC[C@H](N)C(=O)O; Ac3c = NC1(C(=O)O)CC1; Piv = CC(C)(C)C(=O)*

The target in this assay is T1, PD-1/PD-L1 interaction (PE-labeled human PD-L1-Ig binding to Jurkat cell line over-expressing human PD-1) (Homo sapiens, UniProt Q15116).
T1 construct: expressed in transfected cells; host or cells: Jurkat
T1 sequence (Q15116 25-288): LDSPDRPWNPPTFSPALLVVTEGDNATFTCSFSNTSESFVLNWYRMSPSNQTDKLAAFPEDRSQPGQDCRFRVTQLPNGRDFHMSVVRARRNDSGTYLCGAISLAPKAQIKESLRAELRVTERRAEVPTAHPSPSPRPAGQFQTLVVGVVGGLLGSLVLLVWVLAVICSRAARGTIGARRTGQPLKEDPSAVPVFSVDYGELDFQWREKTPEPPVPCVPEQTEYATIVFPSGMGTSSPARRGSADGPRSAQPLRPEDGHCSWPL
The assay can be described thus: Jurkat-PD-1 Cell Binding High-Content Screening Assay (CBA). Type of assay: cell-based. The conditions noted are these: Jurkat cell line over-expressing human PD-1; PE-labeled PD-L1-Ig 20 nM final; read-out: Jurkat hPD1-PDL1 IC50. The method, boiled down: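 Read-out is high-content imaging of cell-bound phycoerythrin-tagged PD-L1-Ig on fixed, Hoechst-counterstained Jurkat cells that over-express human PD-1. Compound exposure lasts 2 h at 37° C before the labeled ligand (20 nM final) is added for a further hour.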
With `Cc1cccc(C[C@@H]2NC(=O)[C@H](CC(=O)O)NC(=O)[C@H](Cc3ccc(OCC(=O)O)cc3)NC(=O)[C@H](Cc3cn(C)cn3)NC(=O)CSC[C@@H](C(=O)N[C@@H](CCN)C(=O)NCCCCCCCCCCC(=O)O)NC(=O)[C@H](CCC(N)=O)NC(=O)[C@H](C(C)(C)O)NC(=O)[C@H](CC3CCCCC3)NC(=O)[C@H](CCN)NC(=O)[C@@H](CC(C)C)NC(=O)[C@H](CCCN)NC(=O)[C@H](Cc3ccc(OCC(=O)O)cc3)NC(=O)[C@H](Cc3ccc(-c4ccccc4)cc3)NC(=O)[C@H](Cc3ccc(OCC(=O)O)cc3)NC2=O)c1` [Compound 2155] ({CH2CO}-[His(τ-Me)]Y(Carboxymethyl)D[Phe(3-Me)]Y(Carboxymethyl)[Bip]Y(Carboxymethyl)[Orn][dL][Dab][Cha][Val(3-OH)]QC[Dab][Aun]-OH; thioether N-14), the IC50 came out at 19.4 nM. Turning to `Cc1cccc(C[C@@H]2NC(=O)[C@H](CC(=O)O)NC(=O)[C@H](Cc3ccc(OCC(=O)O)cc3)NC(=O)[C@H](CCNC(=O)C(C)(C)C)NC(=O)CSC[C@@H](C(=O)N[C@@H](CCN)C(=O)NCCCCCCCCCCC(=O)O)NC(=O)[C@H](CCC(N)=O)NC(=O)[C@H](C(C)(C)F)NC(=O)[C@H](CC3CCCCC3)NC(=O)[C@H](CCN)NC(=O)[C@@H](CC(C)C)NC(=O)[C@H](CCCN)NC(=O)[C@H](Cc3ccc(OCC(=O)O)cc3)NC(=O)[C@H](Cc3ccc(-c4ccccc4)cc3)NC(=O)[C@H](Cc3ccc(OCC(=O)O)cc3)NC2=O)c1` [Compound 2156] ({CH2CO}-[Dab](Piv)Y(Carboxymethyl)D[Phe(3-Me)]Y(Carboxymethyl)[Bip]Y(Carboxymethyl)[Orn][dL][Dab][Cha][Val(3-F)]QC[Dab][Aun]-OH; thioether N-14), the IC50 is 9.8 nM. Take `Cc1cccc(C[C@@H]2NC(=O)[C@H](CC(=O)O)NC(=O)[C@H](Cc3ccc(OCC(=O)O)cc3)NC(=O)[C@H](CCCNC(=N)N)NC(=O)CSC[C@@H](C(=O)N[C@@H](CCN)C(=O)NCCCCCCCCCCC(=O)O)NC(=O)[C@H]([C@@H](C)O)NC(=O)[C@H](C(C)C)NC(=O)[C@H](CC3CCCCC3)NC(=O)[C@H](CCN)NC(=O)[C@@H](CC(C)C)NC(=O)[C@H](CCCN)NC(=O)[C@H](Cc3ccc(OCC(=O)O)cc3)NC(=O)[C@H](Cc3ccc(-c4ccccc4)cc3)NC(=O)[C@H](Cc3ccc(OCC(=O)O)cc3)NC2=O)c1` [Compound 2157] ({CH2CO}-RY(Carboxymethyl)D[Phe(3-Me)]Y(Carboxymethyl)[Bip]Y(Carboxymethyl)[Orn][dL][Dab][Cha]VTC[Dab][Aun]-OH; thioether N-14): the IC50 is 97.8 nM. `Cc1cccc(C[C@@H]2NC(=O)[C@H](CC(=O)O)NC(=O)[C@H](Cc3ccc(OCC(=O)O)cc3)NC(=O)[C@H](CN)NC(=O)CN[C@@H](C(=O)N[C@@H](CCN)C(=O)NCCCCCCCCCCC(=O)O)CNC(=O)[C@H]([C@@H](C)O)NC(=O)[C@H](C(C)C)NC(=O)[C@H](CC3CCCCC3)NC(=O)[C@H](CCN)NC(=O)[C@@H](CC(C)C)NC(=O)[C@H](CCCN)NC(=O)[C@H](CCCNC(N)=O)NC(=O)[C@H](Cc3ccc(-c4ccccc4)cc3)NC(=O)[C@H](C(C)C)NC2=O)c1` [Compound 2158]: the IC50 was determined as 129 nM. As to `Cc1cccc(C[C@@H]2NC(=O)[C@H](CC(=O)O)NC(=O)[C@H](Cc3ccc(OCC(=O)O)cc3)NC(=O)[C@H](CCCNC(=N)N)NC(=O)CN(C)C[C@@H](C(=O)N[C@@H](CCN)C(=O)NCCCCCCCCCCC(=O)O)NC(=O)[C@H]([C@@H](C)O)NC(=O)[C@H](C(C)C)NC(=O)[C@H](CC3CCCCC3)NC(=O)[C@H](CCN)NC(=O)[C@@H](CC(C)C)NC(=O)[C@H](CCCN)NC(=O)[C@H](Cc3ccc(OCC(=O)O)cc3)NC(=O)[C@H](Cc3ccc(-c4ccccc4)cc3)NC(=O)[C@H](Cc3ccc(OCC(=O)O)cc3)NC2=O)c1` [Compound 2159], the half-maximal inhibitory concentration (IC50) stood at 96.1 nM.

As to `Cc1cccc(C[C@@H]2NC(=O)[C@H](CC(=O)O)NC(=O)[C@H](Cc3ccc(OCC(=O)O)cc3)NC(=O)[C@H](CN)NC(=O)CNC[C@@H](C(=O)N[C@@H](CCN)C(=O)NCCCCCCCCCCC(=O)O)NC(=O)[C@H]([C@@H](C)O)NC(=O)[C@H](C(C)C)NC(=O)[C@H](CC3CCCCC3)NC(=O)[C@H](CCN)NC(=O)[C@@H](CC(C)C)NC(=O)[C@H](CCCN)NC(=O)[C@H](CCCNC(N)=O)NC(=O)[C@H](Cc3ccc(-c4ccccc4)cc3)NC(=O)[C@H](C(C)C)NC2=O)c1` [Compound 2160], the half-inhibitory concentration (IC50) worked out at 42.6 nM. On to `Cc1cccc(C[C@@H]2NC(=O)[C@H](CC(=O)O)NC(=O)[C@H](Cc3ccc(OCC(=O)O)cc3)NC(=O)[C@H](CCCNC(=N)N)NC(=O)CSC[C@@H](C(=O)NC3(C(=O)NCCCCCCCCCCC(=O)O)CC3)NC(=O)[C@H]([C@@H](C)O)NC(=O)[C@H](C(C)C)NC(=O)[C@H](CC3CCCCC3)NC(=O)[C@H](CCN)NC(=O)[C@@H](CC(C)C)NC(=O)[C@H](CCN)NC(=O)[C@H](Cc3ccc(OCC(=O)O)cc3)NC(=O)[C@H](Cc3ccc(-c4ccccc4)cc3)NC(=O)[C@H](Cc3ccc(OCC(=O)O)cc3)NC2=O)c1` [Compound 2161] ({CH2CO}-RY(Carboxymethyl)D[Phe(3-Me)]Y(Carboxymethyl)[Bip]Y(Carboxymethyl)[Dab][dL][Dab][Cha]VTC[Ac3c][Aun]-OH; thioether N-14), for which the IC50 turned out to be 12.9 nM. In the case of `Cc1cccc(C[C@@H]2NC(=O)[C@H](CC(=O)O)NC(=O)[C@H](Cc3ccc(OCC(=O)O)cc3)NC(=O)[C@H](CCCNC(=N)N)NC(=O)CSC[C@@H](C(=O)NC3(C(=O)NCCCCCCCCCCC(=O)O)CC3)NC(=O)[C@H]([C@@H](C)O)NC(=O)[C@H](C(C)C)NC(=O)[C@H](CC3CCCCC3)NC(=O)[C@H](CCN)NC(=O)[C@@H](CC(C)C)NC(=O)[C@H](CCCNC(N)=O)NC(=O)[C@H](Cc3ccc(OCC(=O)O)cc3)NC(=O)[C@H](Cc3ccc(-c4ccccc4)cc3)NC(=O)[C@H](Cc3ccc(OCC(=O)O)cc3)NC2=O)c1` [Compound 2162] ({CH2CO}-RY(Carboxymethyl)D[Phe(3-Me)]Y(Carboxymethyl)[Bip]Y(Carboxymethyl)[Cit][dL][Dab][Cha]VTC[Ac3c][Aun]-OH; thioether N-14), the 50% inhibitory concentration (IC50) was 12.9 nM. As for `Cc1cccc(C[C@@H]2NC(=O)[C@H](CC(=O)O)NC(=O)[C@H](Cc3ccc(OCC(=O)O)cc3)NC(=O)[C@H](CCCNC(=N)N)NC(=O)CSC[C@@H](C(=O)NC3(C(=O)NCCCCCCCCCCC(=O)O)CC3)NC(=O)[C@H]([C@@H](C)O)NC(=O)[C@H](C(C)C)NC(=O)[C@H](CC3CC3)NC(=O)[C@H](CCN)NC(=O)[C@@H](CC(C)C)NC(=O)[C@H](CCCN)NC(=O)[C@H](Cc3ccc(OCC(=O)O)cc3)NC(=O)[C@H](Cc3ccc(-c4ccccc4)cc3)NC(=O)[C@H](Cc3ccc(OCC(=O)O)cc3)NC2=O)c1` [Compound 2163] ({CH2CO}-RY(Carboxymethyl)D[Phe(3-Me)]Y(Carboxymethyl)[Bip]Y(Carboxymethyl)[Orn][dL][Dab][Ala(cPr)]VTC[Ac3c][Aun]-OH; thioether N-14), the IC50 was 93 nM. Regarding `Cc1cccc(C[C@@H]2NC(=O)[C@H](CC(=O)O)NC(=O)[C@H](Cc3ccc(OCC(=O)O)cc3)NC(=O)[C@H](CCCNC(=N)N)NC(=O)CSC[C@@H](C(=O)NC3(C(=O)NCCCCCCCCCCC(=O)O)CC3)NC(=O)[C@H]([C@@H](C)O)NC(=O)[C@H](C(C)C)NC(=O)[C@H](CC3CCC3)NC(=O)[C@H](CCN)NC(=O)[C@@H](CC(C)C)NC(=O)[C@H](CCCN)NC(=O)[C@H](Cc3ccc(OCC(=O)O)cc3)NC(=O)[C@H](Cc3ccc(-c4ccccc4)cc3)NC(=O)[C@H](Cc3ccc(OCC(=O)O)cc3)NC2=O)c1` [Compound 2164] ({CH2CO}-RY(Carboxymethyl)D[Phe(3-Me)]Y(Carboxymethyl)[Bip]Y(Carboxymethyl)[Orn][dL][Dab][Cba]VTC[Ac3c][Aun]-OH; thioether N-14), the IC50 stood at 33.3 nM.

As for `Cc1cccc(C[C@@H]2NC(=O)[C@H](CC(=O)O)NC(=O)[C@H](Cc3ccc(C(=O)O)cc3)NC(=O)[C@H](CN)NC(=O)CSC[C@@H](C(=O)N[C@@H](CCN)C(=O)NCCCCCCCCCCC(=O)O)NC(=O)[C@H]([C@@H](C)O)NC(=O)[C@H](C(C)C)NC(=O)[C@H](CC3CCCCC3)NC(=O)[C@H](CCN)NC(=O)[C@@H](CC(C)C)NC(=O)[C@H](CCCN)NC(=O)[C@H](Cc3ccc(OCC(=O)O)cc3)NC(=O)[C@H](Cc3ccc(-c4ccccc4)cc3)NC(=O)[C@H](Cc3ccc(OCC(=O)O)cc3)NC2=O)c1` [Compound 2165] ({CH2CO}-[Dap][Phe(4-COOH)]D[Phe(3-Me)]Y(Carboxymethyl)[Bip]Y(Carboxymethyl)[Orn][dL][Dab][Cha]VTC[Dab][Aun]-OH; thioether N-14), the IC50 was determined as 21.8 nM. On to `Cc1cccc(C[C@@H]2NC(=O)[C@H](CC(=O)O)NC(=O)[C@H](Cc3ccc(C(=O)O)cc3)NC(=O)[C@H](CCCNC(=N)N)NC(=O)CSC[C@@H](C(=O)N[C@@H](CCN)C(=O)NCCCCCCCCCCC(=O)O)NC(=O)[C@H]([C@@H](C)O)NC(=O)[C@H](C(C)C)NC(=O)[C@H](CC3CCCCC3)NC(=O)[C@H](CCN)NC(=O)[C@@H](CC(C)C)NC(=O)[C@H](CCCN)NC(=O)[C@H](Cc3ccc(OCC(=O)O)cc3)NC(=O)[C@H](Cc3ccc(-c4ccccc4)cc3)NC(=O)[C@H](Cc3ccc(OCC(=O)O)cc3)NC2=O)c1` [Compound 2166] ({CH2CO}-R[Phe(4-COOH)]D[Phe(3-Me)]Y(Carboxymethyl)[Bip]Y(Carboxymethyl)[Orn][dL][Dab][Cha]VTC[Dab][Aun]-OH; thioether N-14), for which the IC50 is 11.8 nM. On to `Cc1cccc(C[C@@H]2NC(=O)[C@H](CC(=O)O)NC(=O)[C@H](Cc3ccc(C(=O)O)cc3)NC(=O)[C@H](Cc3ccncc3)NC(=O)CSC[C@@H](C(=O)NC3(C(=O)NCCCCCCCCCCC(=O)O)CC3)NC(=O)[C@H]([C@@H](C)O)NC(=O)[C@H](C(C)C)NC(=O)[C@H](CC3CCCCC3)NC(=O)[C@H](CCN)NC(=O)[C@@H](CC(C)C)NC(=O)[C@H](CCCN)NC(=O)[C@H](Cc3ccc(OCC(=O)O)cc3)NC(=O)[C@H](Cc3ccc(-c4ccccc4)cc3)NC(=O)[C@H](Cc3ccc(OCC(=O)O)cc3)NC2=O)c1` [Compound 2167] ({CH2CO}-[4Pal][Phe(4-COOH)]D[Phe(3-Me)]Y(Carboxymethyl)[Bip]Y(Carboxymethyl)[Orn][dL][Dab][Cha]VTC[Ac3c][Aun]-OH; thioether N-14), for which the IC50 was 9.4 nM.
